The test system of this test is transverse heart sections from Ang II-infused WT mice. The experiment in a line: Angiotensin II infusion prevention model: cardiac hypertrophy, fibrosis, ROS and inflammatory markers. The format is in vivo, mouse. The note with it: Ang II + HFI-419, 4 weeks. As to the method:
There are 8 different sets of in vivo experiments in this study: • A) Phenotypic characterisation of the heart and blood vessels in global IRAP knockout mice and their WT controls treated for 4 weeks with Angiotensin (Ang) II (800 ng/kg/min; s.c.) where mouse hearts and blood vessels were compared to tissue obtained from young WT and IRAP^−/− mice treated with saline. • B) Prevention of Ang II-induced changes in the cardiovascular system following IRAP inhibitor treatment. In the prevention model, WT mice were treated with Ang II (800 ng/kg/min; s.c.)±the IRAP inhibitor (HFI-419; 500 ng/kg/min for 28 days) or HFI-vehicle (1 DMSO:3 HBC). • C) Phenotypic characterisation of the aged heart, kidney and blood vessels in the global IRAP knockout mice where aged WT and IRAP^−/− mouse hearts, kidneys and blood vessels were compared to tissue obtained from young WT and IRAP^−/− mice. • D) Reversal of the age-induced changes in the cardiovascular system following IRAP inhibitor treatment. In the reversal model, aged WT mice were treated with either saline, IRAP inhibitor (HFI-419 at 500 ng/kg/min; compound 1 at 500 ng/kg/min; compound 2 at 50 ng/kg/min) or HFI-vehicle (1 DMSO: 3 HBC) for 4 weeks. • E) Prevention of ischemic-reperfusion injury in isolated hearts taken from aged global IRAP knockout mice and aged IRAP inhibitor (HFI-419 at 500 ng/kg/min; s.c.) treated WT mice compared to age-matched vehicle-treated (1 DMSO:3 HBC; s.c.) WT controls. • F) Phenotypic characterization of cardiac function using echocardiography in the aged global IRAP knockout mice compared to aged and young WT mice. • G) Phenotypic characterization of liver steatosis in IRAP knockout mice in a high fat diet (HFD) model. • H) Reversal of the salt-induced fibrosis in the liver following IRAP inhibitor treatment.
To measure collagen deposition, frozen sections of heart, kidney or aorta (all 5 μm thickness) were air dried for 10 minutes and were brought through 3 times xylene (2 minutes each), and 3 times absolute alcohol washes before being rinsed in tap H2O for 30 seconds. Staining with an optimal concentration of picrosirius red (in this instance 0.05% picrosirius red diluted in saturated picric acid) was performed and left for an hour. Sections were then rinsed in water and differentiated in 0.01 M HCl for 2 minutes, followed by dehydration via 3 times absolute alcohol washes. Then, slides were brought through 3 times xylene washes before being cover slipped according to standard histological techniques using DPX as the mounting medium. Images were taken under ×20 magnification, using bright field (Olympus, BX51) and circularized polarized light microscopy (DM IRB, Leica) while percentage of positive interstitial collagen staining per total field of view was quantified using ImageJ 1.46 software (Java, NIH), and averaged out from a total of eight views as the final percentage collagen content in a particular animal.
Ventricular weight (VW) was compared to the body weight (BW) as a ratio of VW:BW (mg/g), as well as comparison of VW to tibial length (TL) in as a ratio of VW:TL (mg/mm) respectively. The hearts that were embedded in OCT and frozen were transversely sectioned in a cryostat at 5 μm thickness, and stained with Hematoxylin and Eosin (Amber Scientific) for morphological examination of cell structure. The average of 100 cardiomyocytes per heart section was performed under 60× magnification and analyzed using Image J.
Immunostaining was performed on either 5 μm thick transverse frozen heart sections or 5 μm thick frozen thoracic aortic. These sections were air dried and fixed in ice-cold acetone for approximately 15 minutes before washing with 0.01M PBS buffer (3×10 minutes). Sections were then incubated with 10% goat serum in 0.01M PBS for 30 minutes to reduce non-specific binding. […]

Regarding `CCOC(=O)C1=C(NC(C)=O)Oc2cc(O)ccc2C1c1cccnc1` (stereo not drawn) [HFI-419], for the setting “FIG. 5a”, the “Ang II-mediated increase in cardiac hypertrophy (cardiomyocyte cross-sectional area, H&E)” value was “prevented”. The “interstitial collagen expression in heart (picrosirius red, brightfield)” value (FIG. 5b) is “significantly decreased”. Where the note is “FIG. 6”, the “protein expression of TGF-β1 in heart (western blot)” value is “decreased”, the “vimentin staining in heart (marker for fibroblast expression)” value is recorded as “no change” and the “α-SMA staining in heart (marker for myofibroblast expression)” value was “decreased”. In addition, for the setting “FIG. 7”, the “Ang II-induced increase in cardiac superoxide generation (DHE)” value was “prevented”; the “ICAM-1 expression and protein content in heart” value is “decreased”; the “MCP-1 expression in heart” value is “decreasing”; the “P-IκBα expression in heart” value is “decreased”. Besides, under “FIG. 7”, the “expression of NOX-2 in heart” value is recorded as “no effect” and the “macrophage (F4/80) expression in heart” value was “decreasing”. Moreover, the “perivascular expression of TGF-β1 in heart” value (immunofluorescence, FIG. 6) is recorded as “decreased”.

The record behind these values is US11834663B2, “Fibrotic treatment” (Monash University, priority 2015, dated 2023).
